Results published in ChEMBL document CHEMBL6083240, “Design, synthesis and biological evaluation of arylpropylamine derivatives as potential multi-target antidepressants” (Bioorg Med Chem, 2024).
Active and inactive are the calls of the source. No cut-off for these calls is given here.

How the values were obtained:
[1] = target: T1, 5-hydroxytryptamine receptor 2A (Homo sapiens, UniProt P28223); assay: Agonist activity at 5-HT2A in HEK293 cells at 10 uM incubated for 60 mins by FLIPR assay relative to control; assay type: functional, cell-based; conditions: filed as agonist
[2] = target: Muscarinic acetylcholine receptor M5 (Homo sapiens, UniProt P08912); assay: Binding affinity to M5 receptor (unknown origin)
[3] = AUC(0 to t) in CD1 mouse at 15 mg/kg, po measured upto 24 hrs by LC-MS analysis; assay type: ADME, organism-based; conditions: in vivo
[4] = target: Sodium-dependent serotonin transporter (Rattus norvegicus) (UniProt P31652); assay: Agonist activity at rat cerebral cortex membrane SERT at 10 uM incubated for 10 mins in presence of [3H]5-HT relative to control; assay type: cell membranes
[5] = AUC(0 to infinity) in CD1 mouse at 15 mg/kg, po measured upto 24 hrs by LC-MS analysis; assay type: ADME, organism-based; conditions: in vivo
Mus musculus [6] = assay: Antidepressant activity in Kunming mouse chronic unpredictable mild stress model assessed as increase in sucrose preference at 4 mg/kg, IG measured after 2 weeks; assay type: functional, organism-based
Rattus norvegicus = assay: Antidepressant activity against ACTH-induced treatment resistant depression in Sprague-Dawley rat model assessed as reduction in immobility time at 20 to 40 mg/kg, IG by forced swimming test; assay type: functional, organism-based; conditions: dose 20-40 mg/kg
[7] = MRTlast in CD1 mouse at 2 mg/kg, iv measured upto 10 hrs by LC-MS analysis; assay type: ADME, organism-based; conditions: in vivo
[8] = target: Muscarinic acetylcholine receptor M2 (Homo sapiens, UniProt P08172); assay: Binding affinity to M2 receptor (unknown origin)
[9] = target: Sodium-dependent dopamine transporter (Homo sapiens, UniProt Q01959); assay: Binding affinity to DAT (unknown origin)
[10] = target: Voltage-gated inwardly rectifying potassium channel KCNH2 (Homo sapiens, UniProt Q12809); assay: Inhibition of human ERG expressed in HEK293 cells by whole-cell patch clamp method; assay type: toxicity, cell-based
[11] = target: T1, 5-hydroxytryptamine receptor 2A; assay: Antagonist activity at 5-HT2A in HEK293 cells incubated for 60 mins by FLIPR assay; assay type: cell-based
D(3) dopamine receptor = D(3) dopamine receptor (Homo sapiens, UniProt P35462); assay: Binding affinity to D3 receptor (unknown origin)
[12] = target: Sodium-dependent serotonin transporter (Rattus norvegicus, UniProt P31652); assay: Displacement of [3H]-paroxetine from SERT in rat cerebral cortex incubated for 10 mins by liquid scintillation counting method; assay type: tissue-based
[13] = target: Muscarinic acetylcholine receptor M4 (Homo sapiens, UniProt P08173); assay: Binding affinity to M4 receptor (unknown origin)
Mus musculus [14] = assay: Antidepressant activity in Kunming mouse chronic unpredictable mild stress model assessed as increase in sucrose preference at 0.5 to 6 mg/kg, IG measured after 1 week; assay type: functional, organism-based; conditions: dose 0.5-6 mg/kg, time 1.0 weeks
D(2) dopamine receptor = D(2) dopamine receptor (Homo sapiens, UniProt P14416); assay: Binding affinity to D2 receptor (unknown origin)
[15] = AUC(0 to infinity) in CD1 mouse at 2 mg/kg, iv measured upto 10 hrs by LC-MS analysis; assay type: ADME, organism-based; conditions: in vivo
[16] = target: T2, Alpha-1A adrenergic receptor (Rattus norvegicus, UniProt P43140); assay: Displacement of [3H]-prazosin from adrenergic alpha-1 receptor in rat cerebral cortex incubated for 60 mins by liquid scintillation counting method; assay type: toxicity, tissue-based
T2 sequence (P43140 whole entry): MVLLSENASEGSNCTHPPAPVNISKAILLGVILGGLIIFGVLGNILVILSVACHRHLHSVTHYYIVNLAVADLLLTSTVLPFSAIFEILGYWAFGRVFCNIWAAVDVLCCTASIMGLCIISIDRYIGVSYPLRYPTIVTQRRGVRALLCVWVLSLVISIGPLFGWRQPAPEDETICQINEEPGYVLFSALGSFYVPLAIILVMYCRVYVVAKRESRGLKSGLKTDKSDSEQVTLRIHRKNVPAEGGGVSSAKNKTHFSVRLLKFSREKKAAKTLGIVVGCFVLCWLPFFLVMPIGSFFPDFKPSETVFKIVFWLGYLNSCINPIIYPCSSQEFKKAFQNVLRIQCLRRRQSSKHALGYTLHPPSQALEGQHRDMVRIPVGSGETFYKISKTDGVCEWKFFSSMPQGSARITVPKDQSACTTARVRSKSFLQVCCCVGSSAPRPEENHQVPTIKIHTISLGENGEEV

[17] = target: T3, 5-hydroxytryptamine receptor 2C (Homo sapiens) (UniProt P28335); assay: Antagonist activity at 5-HT2C in HEK293 cells at 10 uM incubated for 60 mins by FLIPR assay relative to control; assay type: cell-based; design: scale not given: the % may be the effect or the level left; conditions: filed as antagonist
T3 sequence (whole entry): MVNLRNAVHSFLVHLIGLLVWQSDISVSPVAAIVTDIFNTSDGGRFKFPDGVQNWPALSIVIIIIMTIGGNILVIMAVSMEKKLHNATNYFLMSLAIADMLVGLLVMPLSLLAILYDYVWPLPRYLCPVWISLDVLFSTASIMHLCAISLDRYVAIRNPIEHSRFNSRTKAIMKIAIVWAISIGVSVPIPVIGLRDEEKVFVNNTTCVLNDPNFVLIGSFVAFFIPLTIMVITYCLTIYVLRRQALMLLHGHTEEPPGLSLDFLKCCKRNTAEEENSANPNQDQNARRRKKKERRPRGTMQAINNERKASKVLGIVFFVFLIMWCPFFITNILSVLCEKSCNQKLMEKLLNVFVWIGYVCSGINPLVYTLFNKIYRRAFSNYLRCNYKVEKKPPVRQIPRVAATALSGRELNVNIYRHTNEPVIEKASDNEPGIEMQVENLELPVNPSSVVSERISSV

[18] = target: Muscarinic acetylcholine receptor M3 (Homo sapiens, UniProt P20309); assay: Binding affinity to M3 receptor (unknown origin)
[19] = target: Sodium-dependent serotonin transporter (Rattus norvegicus) (UniProt P31652); assay: Antagonist activity at rat cerebral cortex membrane SERT at 10 uM incubated for 10 mins in presence of [3H]5-HT relative to control; assay type: cell membranes; design: scale not given: the % may be the effect or the level left; conditions: filed as antagonist
[20] = target: 5-hydroxytryptamine receptor 2A (Rattus norvegicus, UniProt P14842); assay: Displacement of [3H]-ketanserin from 5-HT2A in rat cerebral cortex incubated for 15 mins by liquid scintillation counting method; assay type: tissue-based
[21] = Half-life in CD1 mouse at 15 mg/kg, po measured upto 24 hrs by LC-MS analysis; assay type: ADME, organism-based; conditions: in vivo
Mus musculus [22] = assay: Antidepressant activity in IG dosed Kunming mouse assessed as decrease in immobility time by measuring minimal effective dose by forced swimming test; assay type: functional
Histamine H3 receptor = Histamine H3 receptor (Homo sapiens, UniProt Q9Y5N1); assay: Binding affinity to H3 receptor (unknown origin)
[23] = target: Transporter (Rattus norvegicus) (UniProt Q63380); assay: Agonist activity at rat cerebral cortex membrane NET at 10 uM incubated for 10 mins in presence of [3H]-NE relative to control; assay type: cell membranes
[24] = Acute toxicity in po dosed Sprague-Dawley rat assessed as mortality rate measured after 24 hrs; assay type: organism-based; conditions: in vivo
[25] = target: Muscarinic acetylcholine receptor M1 (Homo sapiens, UniProt P11229); assay: Binding affinity to M1 receptor (unknown origin)
Muscarinic acetylcholine receptor M1, sequence (P11229 whole entry): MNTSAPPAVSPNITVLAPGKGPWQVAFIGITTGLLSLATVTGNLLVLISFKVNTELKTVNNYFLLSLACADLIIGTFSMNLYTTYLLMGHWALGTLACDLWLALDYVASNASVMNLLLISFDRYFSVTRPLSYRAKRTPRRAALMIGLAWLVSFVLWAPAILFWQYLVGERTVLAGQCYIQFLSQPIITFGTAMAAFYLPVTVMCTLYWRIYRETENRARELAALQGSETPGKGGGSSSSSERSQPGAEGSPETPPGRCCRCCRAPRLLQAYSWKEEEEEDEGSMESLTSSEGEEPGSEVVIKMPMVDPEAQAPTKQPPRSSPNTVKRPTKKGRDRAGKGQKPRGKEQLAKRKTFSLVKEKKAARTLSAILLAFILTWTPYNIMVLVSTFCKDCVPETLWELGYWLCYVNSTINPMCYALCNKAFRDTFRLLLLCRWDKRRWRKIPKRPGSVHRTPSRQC

T1 sequence (P28223 whole entry): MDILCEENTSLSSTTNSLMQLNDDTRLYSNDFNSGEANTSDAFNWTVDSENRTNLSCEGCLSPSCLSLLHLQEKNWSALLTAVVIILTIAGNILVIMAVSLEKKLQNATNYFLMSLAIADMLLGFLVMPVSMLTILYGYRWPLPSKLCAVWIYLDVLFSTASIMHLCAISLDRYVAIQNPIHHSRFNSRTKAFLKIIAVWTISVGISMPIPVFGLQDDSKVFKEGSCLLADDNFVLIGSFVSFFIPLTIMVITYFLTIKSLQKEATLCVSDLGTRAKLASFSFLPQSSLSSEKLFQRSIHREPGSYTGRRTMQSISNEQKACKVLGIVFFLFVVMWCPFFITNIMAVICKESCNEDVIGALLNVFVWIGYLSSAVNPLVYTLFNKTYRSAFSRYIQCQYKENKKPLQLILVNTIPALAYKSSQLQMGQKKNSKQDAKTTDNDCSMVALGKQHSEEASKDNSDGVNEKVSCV
Sodium-dependent serotonin transporter (Rattus norvegicus), sequence (P31652 whole entry): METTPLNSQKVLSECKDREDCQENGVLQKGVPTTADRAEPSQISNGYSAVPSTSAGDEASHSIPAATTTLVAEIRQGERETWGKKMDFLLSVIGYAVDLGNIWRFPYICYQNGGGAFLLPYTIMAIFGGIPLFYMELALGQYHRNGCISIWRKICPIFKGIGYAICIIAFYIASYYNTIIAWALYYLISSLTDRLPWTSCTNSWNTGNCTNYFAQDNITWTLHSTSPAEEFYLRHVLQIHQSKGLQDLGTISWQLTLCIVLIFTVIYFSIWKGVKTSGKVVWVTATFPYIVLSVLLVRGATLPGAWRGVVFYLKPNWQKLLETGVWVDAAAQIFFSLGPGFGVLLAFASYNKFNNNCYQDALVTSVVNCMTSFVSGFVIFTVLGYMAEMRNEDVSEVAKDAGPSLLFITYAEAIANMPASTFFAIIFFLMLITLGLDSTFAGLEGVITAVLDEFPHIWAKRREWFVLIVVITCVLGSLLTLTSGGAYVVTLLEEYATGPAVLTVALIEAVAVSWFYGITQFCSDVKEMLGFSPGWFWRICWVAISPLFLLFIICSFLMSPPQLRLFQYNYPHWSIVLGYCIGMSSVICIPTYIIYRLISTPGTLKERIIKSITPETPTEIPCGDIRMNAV
Sodium-dependent dopamine transporter, sequence (Q01959 whole entry): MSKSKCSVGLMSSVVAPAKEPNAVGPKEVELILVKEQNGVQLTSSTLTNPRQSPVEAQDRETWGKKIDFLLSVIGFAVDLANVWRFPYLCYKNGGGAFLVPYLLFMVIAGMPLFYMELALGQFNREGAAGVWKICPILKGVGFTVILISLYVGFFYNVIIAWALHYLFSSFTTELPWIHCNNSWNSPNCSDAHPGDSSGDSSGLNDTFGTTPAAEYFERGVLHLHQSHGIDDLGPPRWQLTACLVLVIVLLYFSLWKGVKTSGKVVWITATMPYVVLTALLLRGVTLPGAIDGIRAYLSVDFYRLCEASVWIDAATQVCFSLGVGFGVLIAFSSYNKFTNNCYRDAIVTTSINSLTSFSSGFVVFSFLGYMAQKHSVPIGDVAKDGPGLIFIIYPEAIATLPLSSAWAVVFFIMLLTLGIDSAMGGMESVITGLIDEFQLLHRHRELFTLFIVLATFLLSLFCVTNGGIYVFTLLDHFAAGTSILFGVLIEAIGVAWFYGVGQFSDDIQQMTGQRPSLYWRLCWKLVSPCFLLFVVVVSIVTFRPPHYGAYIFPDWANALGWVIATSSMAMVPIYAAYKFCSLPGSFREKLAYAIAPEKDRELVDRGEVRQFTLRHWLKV
Histamine H3 receptor, sequence (Q9Y5N1 whole entry): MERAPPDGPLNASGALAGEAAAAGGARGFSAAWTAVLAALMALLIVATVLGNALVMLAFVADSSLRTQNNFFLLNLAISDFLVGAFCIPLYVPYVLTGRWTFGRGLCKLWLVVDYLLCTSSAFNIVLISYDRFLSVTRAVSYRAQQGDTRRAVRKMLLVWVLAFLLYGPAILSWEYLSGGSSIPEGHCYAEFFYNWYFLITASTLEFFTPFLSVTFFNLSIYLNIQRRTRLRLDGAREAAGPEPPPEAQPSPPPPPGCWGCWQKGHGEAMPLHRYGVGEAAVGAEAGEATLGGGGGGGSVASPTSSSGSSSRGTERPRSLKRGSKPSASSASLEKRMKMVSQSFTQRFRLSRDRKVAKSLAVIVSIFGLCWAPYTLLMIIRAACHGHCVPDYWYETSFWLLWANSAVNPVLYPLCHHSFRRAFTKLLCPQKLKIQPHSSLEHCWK
Muscarinic acetylcholine receptor M4, sequence (P08173 whole entry): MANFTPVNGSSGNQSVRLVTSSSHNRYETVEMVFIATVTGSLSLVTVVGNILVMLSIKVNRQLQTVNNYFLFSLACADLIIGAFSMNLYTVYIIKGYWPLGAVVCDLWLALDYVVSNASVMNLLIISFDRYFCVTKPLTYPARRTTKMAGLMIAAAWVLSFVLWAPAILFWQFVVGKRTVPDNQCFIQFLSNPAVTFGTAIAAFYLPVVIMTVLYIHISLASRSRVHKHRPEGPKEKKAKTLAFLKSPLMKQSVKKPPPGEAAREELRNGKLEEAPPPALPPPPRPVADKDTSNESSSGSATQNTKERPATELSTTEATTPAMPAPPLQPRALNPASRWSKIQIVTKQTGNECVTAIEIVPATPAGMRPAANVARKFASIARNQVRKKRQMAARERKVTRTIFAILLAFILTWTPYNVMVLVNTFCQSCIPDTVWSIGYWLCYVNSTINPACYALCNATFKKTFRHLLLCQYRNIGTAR
D(3) dopamine receptor, sequence (P35462 whole entry): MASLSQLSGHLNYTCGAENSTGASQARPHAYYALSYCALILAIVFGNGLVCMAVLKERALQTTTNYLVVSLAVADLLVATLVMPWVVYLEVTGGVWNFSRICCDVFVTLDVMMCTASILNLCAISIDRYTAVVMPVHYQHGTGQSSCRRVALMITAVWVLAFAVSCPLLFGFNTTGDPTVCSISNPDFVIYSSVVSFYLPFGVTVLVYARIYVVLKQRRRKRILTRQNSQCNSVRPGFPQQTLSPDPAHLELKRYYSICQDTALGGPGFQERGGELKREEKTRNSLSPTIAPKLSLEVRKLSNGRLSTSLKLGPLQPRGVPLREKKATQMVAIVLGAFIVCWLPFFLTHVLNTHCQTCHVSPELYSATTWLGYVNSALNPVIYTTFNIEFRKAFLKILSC
Transporter (Rattus norvegicus), sequence (Q63380 as listed by the source): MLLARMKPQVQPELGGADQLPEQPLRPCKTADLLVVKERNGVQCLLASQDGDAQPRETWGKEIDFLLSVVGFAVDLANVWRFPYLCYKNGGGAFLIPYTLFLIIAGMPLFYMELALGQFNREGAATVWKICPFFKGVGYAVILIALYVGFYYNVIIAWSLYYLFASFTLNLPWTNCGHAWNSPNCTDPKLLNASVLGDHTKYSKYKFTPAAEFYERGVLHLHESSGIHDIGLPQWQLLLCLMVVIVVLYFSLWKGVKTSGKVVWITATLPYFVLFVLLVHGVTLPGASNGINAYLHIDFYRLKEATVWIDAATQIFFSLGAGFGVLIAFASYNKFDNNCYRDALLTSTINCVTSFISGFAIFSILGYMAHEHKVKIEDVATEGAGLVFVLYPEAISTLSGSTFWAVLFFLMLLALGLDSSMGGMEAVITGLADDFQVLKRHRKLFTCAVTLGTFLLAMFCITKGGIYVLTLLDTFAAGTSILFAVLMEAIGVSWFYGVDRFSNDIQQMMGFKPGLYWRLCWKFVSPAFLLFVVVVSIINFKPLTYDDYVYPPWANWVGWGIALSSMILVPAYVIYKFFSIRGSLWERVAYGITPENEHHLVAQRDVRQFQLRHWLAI
Muscarinic acetylcholine receptor M5, sequence (P08912 whole entry): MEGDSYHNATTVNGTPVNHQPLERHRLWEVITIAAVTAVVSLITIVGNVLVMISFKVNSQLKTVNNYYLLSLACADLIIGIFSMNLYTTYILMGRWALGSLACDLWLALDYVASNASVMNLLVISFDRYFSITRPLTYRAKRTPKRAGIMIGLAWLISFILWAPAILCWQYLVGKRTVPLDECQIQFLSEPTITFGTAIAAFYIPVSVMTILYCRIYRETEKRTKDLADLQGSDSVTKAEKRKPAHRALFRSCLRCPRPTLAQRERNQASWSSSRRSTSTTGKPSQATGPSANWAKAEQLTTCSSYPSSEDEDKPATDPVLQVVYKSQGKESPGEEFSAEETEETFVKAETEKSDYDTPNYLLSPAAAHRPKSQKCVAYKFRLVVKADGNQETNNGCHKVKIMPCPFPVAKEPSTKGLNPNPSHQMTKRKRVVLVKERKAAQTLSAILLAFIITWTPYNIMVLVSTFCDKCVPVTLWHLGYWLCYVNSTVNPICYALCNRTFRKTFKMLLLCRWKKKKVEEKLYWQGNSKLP

`CN(C)CC[C@@H](Oc1cccc2c1OCO2)c1ccc(F)cc1.O=C(O)C(=O)O` showed an Activity [1] of 103%, a Ki [2] of over 1000 nM and an AUC(0-t) at 24 h [3] of 462 ng·h/mL. The Activity [4] was 2.2%, the AUC(0-inf) [5] was 474 ng·h/mL and the Activity (Mus musculus [6]) was “Active”. The Activity (Rattus norvegicus) was “Active”, the MRT last at 10 h [7] was 1.1 h and the Ki [8] was over 1000 nM. The Ki [9] was over 1000 nM, the IC50 [10] was 1230 nM and the IC50 [11] was 36.1 nM. It also gave a Ki (D(3) dopamine receptor) of over 1000 nM, a Ki [12] of 5.8 nM and a Ki [13] of over 1000 nM. The Activity (Mus musculus [14]) was “inactive”, the Ki (D(2) dopamine receptor) was over 1000 nM and the AUC(0-inf) [15] was 310 ng·h/mL. For the same molecule, the Ki [16] was 1450 nM, the Activity [17] was 99.1% and the Ki [18] was over 1000 nM. The Activity [19] was 99.7%, the Ki [20] was 26.4 nM and the half-life [21] was 108 min. The Activity (Mus musculus [22]) was “Dose-dependent-effect”, the minimal effective dose (Mus musculus [22]; po, read-out: MED) was 6.4 mg/kg and the Ki (Histamine H3 receptor) was over 1000 nM. For the same molecule, the Activity [23] was 5.6%, the LD50 at 24 h [24] was 560 mg/kg and the Ki [25] was 640 nM.
